# What was measured:
# [1] = system: uropathogenic E. coli (CD-2); format: cell-based; settings: serial passaging at sub-MIC, CD-2 E. coli
# Method: The culture was then harvested and tested for MIC as describe above. E. coli CD-2 was cultured without polymer as well every time as a control for comparison of MICs.
# Bacteria are capable of acquiring resistance quickly towards antibiotics and other antimicrobials, minimizing their therapeutic prospects in clinical settings. […] The resulting bacterial population was defined as the first generation, harvested, and its MIC was evaluated. Subsequently, a second generation was produced by exposing first generation with 66% MIC dosage of polymers. […] Similar experiments were conducted on ciprofloxacin (quinolone) and ceftazidime ([…]), clinically relevant antibiotics.
# [2] = system: E. clocae complex CD-1412; experiment: Checkerboard titration, antibiotic-nanoparticle synergy, CD-1412; format: cell-based, E. cloacae; settings: in combination with polymer nanoparticles, FIG. 20
# Method: (§1) To assess possible synergy between antibiotics and polymeric nanoparticles, two-dimensional checkerboard titrations were performed using a micro-dilution method. […] The checkerboard titrations were performed in a set of three independent experiments, repeated on different days.
# (§2) Antibiotic-nanoparticle interaction was determined by calculating the fractional inhibitory concentration of antibiotics (FICAb) and NPs (FICNP) according to the following equations: FICAb=(MIC of antibiotic and NP combination)÷(MIC of antibiotic alone) FICNP=(MIC of antibiotic and NP combination)÷(MIC of NP alone) FICIcombination=FICAb+FICNP
# (§3) FICAb was plotted against FICNP. A concave curve indicates synergy, whereas a convex curve indicates antagonism. Synergy was defined as FICI values ≤0.5, antagonism by FICI values >4.0, and additive interaction by FICI values between >0.5 and 4.0. The experiments were conducted across four different planktonic bacteria strains (E. clocae complex “CD-1412”; Pseudomonas aeruginosa “CD-40”; E. coli “CD-549”; and Acinetobacter species “CD-575”). […] In the presence of polymer nanoparticles, colistin's uptake in biofilms is enhanced nearly 3.5 times.
# [3] = system: Pseudomonas aeruginosa CD-40; experiment: Checkerboard titration, antibiotic-nanoparticle synergy, CD-40; format: cell-based; settings: in combination with polymer nanoparticles, FIG. 20
# Method: as §1, §2, §3
# [4] = system: E. coli CD-549; experiment: Checkerboard titration, antibiotic-nanoparticle synergy, CD-549; format: cell-based; settings: in combination with polymer nanoparticles, FIG. 20
# Method: as §1, §2, §3
# [5] = system: Acinetobacter species CD-575; experiment: Checkerboard titration, antibiotic-nanoparticle synergy, CD-575; format: cell-based; settings: in combination with polymer nanoparticles, FIG. 20
# Method: as §1, §2, §3
# [6] = system: red blood cells (RBCs); experiment: Hemolysis of red blood cells (HC50); format: cell-based, human
# Method: Determination of Hemolysis of Cationic Polymers: Citrate-stabilized human whole blood (pooled, mixed gender) was purchased from Bioreclamation LLC, NY and processed as soon as received. 10 milliliters of phosphate buffered saline (PBS) was added to the blood and centrifuged at 5000 rpm for 5 minutes. The supernatant was carefully discarded and the red blood cells (RBCs) were dispersed in 10 milliliters of PBS. This step was repeated at least five times. The purified RBCs were diluted in 10 milliliters of PBS and kept on ice during the sample preparation. 0.1 milliliter of RBC solution was added to 0.4 milliliters of polymer solution in PBS in a 1.5 milliliter centrifuge tube (Fisher) and mixed gently by pipetting. RBCs incubated with PBS and water was used as negative and positive controls, respectively. All polymer samples as well as controls were prepared in triplicate. The mixture was incubated at 37° C. for 30 minutes while shaking at 150 rpm. After incubation period, the solution was centrifuged at 4000 rpm for 5 minutes and 100 microliters of supernatant was transferred to a 96-well plate. The absorbance value of the supernatant was measured at 570 nm using a microplate reader (SpectraMax M2, Molecular devices) with absorbance at 655 nm as a reference. The percent hemolysis was calculated using the following formula: […]
# [7] = system: NIH 3T3 fibroblast cells; format: cell-based
# Method: The ability to eradicate biofilms on human tissue or organs is also of significant importance. An in vitro co-culture model of mammalian fibroblast cells with biofilms grown over them was used. […] Next, P. aeruginosa bacteria was seeded on a confluent monolayer of NIH 3T3 fibroblast cells overnight to generate biofilms prior to treatment.
molecule,measurement,setting,value
CC(C)(O/N=C(\C(=O)N[C@@H]1C(=O)N2C(C(=O)[O-])=C(C[n+]3ccccc3)CS[C@H]12)c1csc(N)n1)C(=O)O [ceftazidime],increase in the MICs after serial passaging,[1],"4,200 fold"
O=C(O)c1cn(C2CC2)c2cc(N3CCNCC3)c(F)cc2c1=O [ciprofloxacin],increase in the MICs after serial passaging,[1],"33,000 fold"
colistin,antibiotic-nanoparticle interaction (FICI),[2],therapeutically synergistic
same,antibiotic-nanoparticle interaction (FICI),[3],therapeutically synergistic
same,antibiotic-nanoparticle interaction (FICI),[4],therapeutically synergistic
same,antibiotic-nanoparticle interaction (FICI),[5],therapeutically synergistic
poly(oxanorbomeneimide)undecyl trimethylammonium analog [Example 5],HC50,[6],4700 µg/mL
same,toxicity to NIH 3T3 fibroblast cells,[7],No significant toxicity
